Assay: Fluorescence quenching with tryptophan (steady-state, Stern-Volmer)
Assay type: physicochemical
Conditions: phosphate buffered solutions, pH = 8.0, 25° C.; in M-1 (unit assumed)
Description: FIG. 4 illustrates the fluorescence quenching by tryptophan. Shown is the fluorescence of Dye 3 in the absence and presence of various concentration of tryptophan (Trp) in phosphate buffer (pH 8) as a function of wavelength.
Steady-state fluorescence spectroscopy was performed for Dye 2, Dye 3, Dye 14, and Mr121 dye in presence of tryptophan at 25° C. in phosphate buffer.
For evaluating the quenching efficiency, the steady-state fluorescence quenching results were analyzed following the Stern-Volmer equation F0/F=1+KQ[Q], where Fo and F are the fluorescence intensities in the absence and presence of tryptophan and KQ is a static Stern-Volmer constant.

| Structure (SMILES) | Tryptophan Stern-Volmer static quenching constant, KQ |
| --- | --- |
| CC1(C)CC(CS(=O)(=O)[O-])c2cc3c(cc2N1CCCS(=O)(=O)[O-])Oc1cc2c(cc1=N3)C(CS(=O)(=O)[O-])CC(C)(C)[N+]=2CCCC(=O)O.[Na+].[Na+] (stereo not drawn) [Dye 14, disodium (11-(3-carboxypropyl)-2,2,10,10-tetramethyl-1-(3-sulfonatopropyl)-2,3,4,8,9,10-hexahydro-1H-dipyrido[3,2-b:2′,3′-i]phenoxazine-11-ium-4,8-diyl)dimethanesulfonate] | 269 ± 22 |
| CC1(C)CC(CS(=O)(=O)[O-])c2cc3c(cc2=[N+]1CCCC(=O)O)Oc1cc2c(cc1N=3)CCCN2CCCS(=O)(=O)O (stereo not drawn) [Dye 2, sodium 3-(11-(3-carboxypropyl)-10,10-dimethyl-8-(sulfonatomethyl)-2,3,4,8,9,10-hexahydro-1H-dipyrido[3,2-b:2′,3′-i]phenoxazin-11-ium-1-yl)propane-1-sulfonate] | 263 ± 24 |
| CC1CC(C)(C)N(CCCS(=O)(=O)O)c2cc3c(cc21)N=c1cc2c(cc1O3)=[N+](CCCC(=O)O)C(C)(C)CC2CS(=O)(=O)[O-] (stereo not drawn) [Dye 3, sodium 3-(11-(3-carboxypropyl)-2,2,4,10,10-pentamethyl-8-(sulfonatomethyl)-2,3,4,8,9,10-hexahydro-1H-dipyrido[3,2-b:2′,3′-i]phenoxazin-11-ium-1-yl)propane-1-sulfonate] | 320 ± 26 |
